Laboratory results reported in US20250221410A1, “SUBSTITUTED 2-C-AZINES AND SALTS THEREOF, AND USE THEREOF AS HERBICIDAL ACTIVE SUBSTANCES” (BAYER AKTIENGESELLSCHAFT, priority 2022, published 2025).

What was measured:
Assay type in all cases: in vivo
VERPE: Veronica persica [1] = assay: Post-emergence herbicidal efficacy at 1280 g/ha, VERPE; conditions: visual rating about 3 weeks after treatment vs untreated controls
Protocol: (§1) Seeds of mono- and dicotyledonous weed plants were placed in plastic pots in sandy loam soil (doubly sown with in each case one species of mono- or dicotyledonous weed plants per pot), covered with soil and cultivated in a greenhouse under controlled growth conditions. 2 to 3 weeks after sowing, the test plants were treated at the one-leaf stage. The compounds of the invention, formulated in the form of wettable powders (WP) or as emulsion concentrates (EC), were applied to the green parts of the plants as aqueous suspension or emulsion with addition of 0.5% additive at a water application rate equivalent to 600 litres per hectare. After the test plants had been kept in the greenhouse under optimum growth conditions for about 3 weeks, the activity of the preparations was rated visually in comparison to untreated controls. For example, 100% activity=the plants have died, 0% activity=like control plants. Tables A1 to A12 below show the effects of selected compounds of the general formula (I) according to Table 1 on various harmful plants and at an application rate corresponding to 1280 g/ha, which were obtained by the trial procedure specified above.

[2] = tested on: DIGSA: Digitaria sanguinalis; assay: Pre-emergence herbicide efficacy at 1280 g/ha, DIGSA; conditions: visual scoring after about 3 weeks vs untreated controls
From the text: (§2) Seeds of mono- and dicotyledonous weed plants were placed in plastic pots in sandy loam soil (doubly sown with one species each of mono- or dicotyledonous weed plants per pot) and covered with soil. The compounds of the invention, formulated in the form of wettable powders (WP) or as emulsion concentrates (EC), were then applied to the surface of the covering soil as aqueous suspension or emulsion with addition of 0.5% additive at a water application rate of 600 litres per hectare (converted). After the treatment, the pots were placed in a greenhouse and kept under good growth conditions for the test plants. After about 3 weeks, the efficacy of the preparations was scored visually in comparison with untreated controls as percentages. For example, 100% activity=the plants have died, 0% activity=like control plants. Tables C1 to C12 below show the effects of selected compounds of the general formula (I) according to Table 1 on various harmful plants and at an application rate corresponding to 1280 g/ha, which were obtained by the trial procedure specified above.

[3] = tested on: DIGSA: Digitaria sanguinalis; assay: Post-emergence herbicidal efficacy at 1280 g/ha, DIGSA; conditions: rated visually after about 3 weeks vs untreated controls, 100% = plants have died, 0% = like control plants
Protocol: as §1

STEME: Stellaria media [4] = assay: Post-emergence herbicidal efficacy at 1280 g/ha, STEME; conditions: visual rating about 3 weeks after treatment vs untreated controls
Protocol: as §1

KCHSC: Kochia scoparia [5] = assay: Pre-emergence herbicide efficacy at 1280 g/ha, KCHSC; conditions: visual scoring after about 3 weeks vs untreated controls
From the text: as §2

[6] = tested on: AMARE: Amaranthus retroflexus; assay: Pre-emergence herbicide efficacy at 1280 g/ha, AMARE; conditions: visual scoring after about 3 weeks vs untreated controls
From the text: as §2

POAAN: Poa annua [7] = assay: Pre-emergence herbicide efficacy at 1280 g/ha, POAAN; conditions: visual scoring after about 3 weeks vs untreated controls
From the text: as §2

[8] = tested on: ABUTH: Abutilon theophrasti; assay: Post-emergence herbicidal efficacy at 1280 g/ha, ABUTH; conditions: rated visually after about 3 weeks vs untreated controls, 100% = plants have died, 0% = like control plants
Protocol: as §1

[9] = tested on: AMARE: Amaranthus retroflexus; assay: Post-emergence herbicidal efficacy at 1280 g/ha, AMARE; conditions: rated visually after about 3 weeks vs untreated controls, 100% = plants have died, 0% = like control plants
Protocol: as §1

[10] = tested on: ECHCG: Echinochloa crus-galli; assay: Pre-emergence herbicide efficacy at 1280 g/ha, ECHCG; conditions: visual scoring after about 3 weeks vs untreated controls
From the text: as §2

KCHSC: Kochia scoparia [11] = assay: Post-emergence herbicidal efficacy at 1280 g/ha, KCHSC; conditions: visual rating about 3 weeks after treatment vs untreated controls
Protocol: as §1

SETVI: Setaria viridis [12] = assay: Pre-emergence herbicide efficacy at 1280 g/ha, SETVI; conditions: visual scoring vs untreated controls
From the text: as §2

POAAN: Poa annua [13] = assay: Post-emergence herbicidal efficacy at 1280 g/ha, POAAN; conditions: visual rating about 3 weeks after treatment vs untreated controls
Protocol: as §1

[14] = tested on: ECHCG: Echinochloa crus-galli; assay: Post-emergence herbicidal efficacy at 1280 g/ha, ECHCG; conditions: rated visually after about 3 weeks vs untreated controls, 100% = plants have died, 0% = like control plants
Protocol: as §1

[15] = tested on: ABUTH: Abutilon theophrasti; assay: Pre-emergence herbicide efficacy at 1280 g/ha, ABUTH; conditions: visual scoring after about 3 weeks vs untreated controls
From the text: as §2

SETVI: Setaria viridis [16] = assay: Post-emergence herbicidal efficacy at 1280 g/ha, SETVI; conditions: visual rating about 3 weeks after treatment vs untreated controls
Protocol: as §1

VERPE: Veronica persica [17] = assay: Pre-emergence herbicide efficacy at 1280 g/ha, VERPE; conditions: visual scoring vs untreated controls
From the text: as §2

STEME: Stellaria media [18] = assay: Pre-emergence herbicide efficacy at 1280 g/ha, STEME; conditions: visual scoring vs untreated controls
From the text: as §2

Compound: FC(F)(F)CCCc1ccccc1Cc1ncc(Cl)cn1 [Example 1-1]
- Post-emergence efficacy against VERPE (VERPE: Veronica persica [1]): 100%
- Pre-emergence efficacy against DIGSA [2]: 100%
- Post-emergence efficacy at 1280 g/ha against DIGSA in % [3]: 90%
- Post-emergence efficacy against STEME (STEME: Stellaria media [4]): 100%
- Pre-emergence efficacy against KCHSC (KCHSC: Kochia scoparia [5]): 90%
- Pre-emergence efficacy against AMARE [6]: 100%
- Pre-emergence efficacy against POAAN (POAAN: Poa annua [7]): 90%
- Post-emergence efficacy at 1280 g/ha against ABUTH in % [8]: 90%
- Post-emergence efficacy at 1280 g/ha against AMARE in % [9]: 100%
- Pre-emergence efficacy against ECHCG [10]: 90%
- Post-emergence efficacy against KCHSC (KCHSC: Kochia scoparia [11]): 90%
- Pre-emergence efficacy against SETVI in % (SETVI: Setaria viridis [12]): 90%
- Post-emergence efficacy against POAAN (POAAN: Poa annua [13]): 90%

Compound: Fc1ccc(-c2ccccc2Cc2ncc(Cl)cn2)cc1F [Example 1-26]
- Post-emergence efficacy at 1280 g/ha against ECHCG in % [14]: 90%
- Post-emergence efficacy against VERPE (VERPE: Veronica persica [1]): 100%
- Pre-emergence efficacy against DIGSA [2]: 100%
- Post-emergence efficacy at 1280 g/ha against DIGSA in % [3]: 90%
- Post-emergence efficacy against STEME (STEME: Stellaria media [4]): 100%
- Pre-emergence efficacy against KCHSC (KCHSC: Kochia scoparia [5]): 100%
- Pre-emergence efficacy against AMARE [6]: 100%
- Pre-emergence efficacy against POAAN (POAAN: Poa annua [7]): 100%
- Post-emergence efficacy at 1280 g/ha against ABUTH in % [8]: 100%
- Post-emergence efficacy at 1280 g/ha against AMARE in % [9]: 100%
- Pre-emergence efficacy against ECHCG [10]: 90%
- Post-emergence efficacy against KCHSC (KCHSC: Kochia scoparia [11]): 100%
- Pre-emergence efficacy against ABUTH [15]: 90%
- Post-emergence efficacy against SETVI (SETVI: Setaria viridis [16]): 90%
- Pre-emergence efficacy against SETVI in % (SETVI: Setaria viridis [12]): 90%
- Post-emergence efficacy against POAAN (POAAN: Poa annua [13]): 90%

Compound: Fc1cnc(Cc2ccccc2-c2ccc(F)c(F)c2)nc1 [Example 1-27]
- Post-emergence efficacy against VERPE (VERPE: Veronica persica [1]): 90%
- Pre-emergence efficacy against DIGSA [2]: 100%
- Post-emergence efficacy at 1280 g/ha against DIGSA in % [3]: 90%
- Pre-emergence efficacy against VERPE in % (VERPE: Veronica persica [17]): 100%
- Post-emergence efficacy against STEME (STEME: Stellaria media [4]): 90%
- Pre-emergence efficacy against KCHSC (KCHSC: Kochia scoparia [5]): 90%
- Pre-emergence efficacy against AMARE [6]: 100%
- Pre-emergence efficacy against POAAN (POAAN: Poa annua [7]): 90%
- Post-emergence efficacy at 1280 g/ha against ABUTH in % [8]: 90%
- Post-emergence efficacy at 1280 g/ha against AMARE in % [9]: 100%
- Pre-emergence efficacy against ECHCG [10]: 90%
- Post-emergence efficacy against KCHSC (KCHSC: Kochia scoparia [11]): 90%
- Pre-emergence efficacy against ABUTH [15]: 100%
- Post-emergence efficacy against SETVI (SETVI: Setaria viridis [16]): 90%
- Pre-emergence efficacy against SETVI in % (SETVI: Setaria viridis [12]): 100%
- Post-emergence efficacy against POAAN (POAAN: Poa annua [13]): 90%

Compound: Cc1cccc(Cc2ncc(Cl)cn2)c1Oc1ccc(F)cc1 [Example 1-31]
- Post-emergence efficacy at 1280 g/ha against ECHCG in % [14]: 100%
- Post-emergence efficacy against VERPE (VERPE: Veronica persica [1]): 90%
- Pre-emergence efficacy against DIGSA [2]: 100%
- Post-emergence efficacy against STEME (STEME: Stellaria media [4]): 90%
- Pre-emergence efficacy against AMARE [6]: 90%
- Pre-emergence efficacy against POAAN (POAAN: Poa annua [7]): 100%
- Post-emergence efficacy at 1280 g/ha against ABUTH in % [8]: 100%
- Post-emergence efficacy at 1280 g/ha against AMARE in % [9]: 90%
- Pre-emergence efficacy against ECHCG [10]: 100%
- Post-emergence efficacy against SETVI (SETVI: Setaria viridis [16]): 90%
- Pre-emergence efficacy against SETVI in % (SETVI: Setaria viridis [12]): 100%
- Post-emergence efficacy against POAAN (POAAN: Poa annua [13]): 90%

Compound: Fc1ccc(Oc2c(Br)cccc2Cc2ncc(Cl)cn2)cc1 [Example 1-37]
- Post-emergence efficacy at 1280 g/ha against ECHCG in % [14]: 100%
- Post-emergence efficacy against VERPE (VERPE: Veronica persica [1]): 100%
- Pre-emergence efficacy against DIGSA [2]: 100%
- Post-emergence efficacy at 1280 g/ha against DIGSA in % [3]: 90%
- Post-emergence efficacy against STEME (STEME: Stellaria media [4]): 90%
- Pre-emergence efficacy against AMARE [6]: 100%
- Pre-emergence efficacy against POAAN (POAAN: Poa annua [7]): 90%
- Post-emergence efficacy at 1280 g/ha against ABUTH in % [8]: 100%
- Pre-emergence efficacy against STEME in % (STEME: Stellaria media [18]): 90%
- Post-emergence efficacy at 1280 g/ha against AMARE in % [9]: 100%
- Pre-emergence efficacy against ECHCG [10]: 90%
- Post-emergence efficacy against KCHSC (KCHSC: Kochia scoparia [11]): 100%
- Pre-emergence efficacy against SETVI in % (SETVI: Setaria viridis [12]): 100%
- Post-emergence efficacy against POAAN (POAAN: Poa annua [13]): 100%
